Experimental data taken from patent US6254898A, “Nutraceutical composition for protection against solar radiation” (Protective Factors, Inc., priority 2000, dated 2001).

Legend:
[1] = Superoxide scavenging activity in a non-enzymatic superoxide generating system; type: biochemical; settings: at the dilutions tested
Description: (§1) The cytotoxic effects of ultraviolet A irradiation on mammalian cells (e.g., skin fibroblasts) have been attributed largely to photoreactions that generate reactive oxygen species, such as superoxide and hydrogen peroxide. The free radical scavenging activity of the blend and its components was determined in vitro using spectrophotometric assays (Yen, G. C. and Duh, P. D., J. Agric. Food Chem., 42: 629-632, 1994; Facino, R. M., Carini, M., Aldini, G., Berti, F., and Rossoni, G., Planta Med., 65: 614-619, 1999). The superoxide scavenging activity was assessed in a non-enzymatic system. The reduction of the stable free radical DPPH (2,2-diphenyl-1-picrylhydrazyl radical), indicative of the neutralizing action upon the already formed free radicals, also was determined in a cell-free system. […]
(§2) The superoxide scavenging activity was determined in a superoxide generating system containing 20 μM of phenazine methosulfate, 156 μM of β-NADH, 50 mM of phosphate buffer, and the extracts at various levels. The reaction was initiated by adding nitroblue tetrazolium (25 μM) and the reduction was monitored using a spectrophotometer at 556 nm. […] The reduction in absorbence was measured using a spectrophotometer at 515 nm. […] The percent inhibition is expressed as the quenching ratio represented by the following formula: [formula]

[2] = target: T1, Trypsin Type III from bovine pancreas (Bos taurus, UniProt P00760); experiment: Trypsin inhibitory activity (BAPNA substrate); type: biochemical; settings: at the dilutions tested for the blend
T1 construct: purchased Sigma; host or cells: bovine pancreas
T1 sequence (P00760 24-246): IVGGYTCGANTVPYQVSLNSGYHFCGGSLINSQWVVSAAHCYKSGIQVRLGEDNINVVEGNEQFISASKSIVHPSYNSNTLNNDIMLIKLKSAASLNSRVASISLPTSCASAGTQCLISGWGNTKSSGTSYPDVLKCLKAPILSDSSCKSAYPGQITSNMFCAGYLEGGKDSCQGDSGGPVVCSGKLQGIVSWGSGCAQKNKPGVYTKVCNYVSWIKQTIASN
Description: Serine protease inhibitory activity was determined in vitro by measuring the trypsin inhibitory activity of the blend and its components. Trypsin inhibitory activity was determined by the spectrophotometric determination of the release of p-nitroaniline from a synthetic substrate N-α-benzoyl-DL-arginine-p-nitroanilide hydrochloride (BAPNA) (Parellada, J. and Guinea, M., J. Nat. Prod., 58: 823-829, 1995; Geiger, R. and Fritz, H., In Methods of Enzymatic Analysis, Bergmeyer, H. V., et al (Eds), Verlag-Chemie, Basel, Switzerland, Vol. V, p. 119-129, 1984).
Trypsin Type III from bovine pancreas, BAPNA, and p-nitroaniline were obtained from Sigma. The inventive blend and its components were supplied in a capsule containing: green tea extract, 250 mg; lutein, 15 mg; Se, 50 mcg; and lipoic acid, 50 mg. The capsule's contents were extracted in ethanol [0.5 g (contents of one capsule) in 5 ml ethanol and the components at concentrations incorporated in the blend in 5 ml ethanol].
Aliquots of the enzyme solution (0.25 ml of a 1060 units/ml solution in 0.05 M Tris buffer, pH 7.8) and the buffer (0.25 ml) with various concentrations of the test extracts and without extracts (reference solution) were pre-incubated at 37° C. for 10 min. Blank samples were prepared by inactivating the enzyme with 0.5 ml of 2 M acetic acid before incubation. The enzymatic reaction was started by adding to the reaction mixture 1.25 ml of the substrate solution (1 mM in 0.05 M Tris buffer, pH 7.8). The mixture was incubated for 10 min and the reaction was stopped by adding 0.5 ml of 2 M acetic acid. The p-nitroaniline released was measured using a spectrophotometer at 410 nm. The results are the means ±SD of triplicate measurements. The inhibitory activity is expressed as the inhibition ratio represented by the following formula: [formula]

[3] = tested on: fibroblast cell line BALB/3T3 clone A31; experiment: UV protecting activity: viability of UVA-irradiated fibroblasts (MTT assay); type: cell-based, mouse; settings: UVA-irradiated BALB/3T3 cells
Description: Exposure of skin to sunlight especially to ultraviolet A (320-380 nm) radiation has been reported to induce photochemical generation of reactive oxygen species, resulting in membrane lipid peroxidation, photodamage to DNA, and inactivation of fibroblasts. […] A mammalian fibroblast cell line was used to determine the UV-protective action of the blend and the components at a cellular level.
Dulbecco's Modified Eagle Medium (DMEM) with 4 mM L-glutamine and 110 mg/l sodium pyruvate, Dulbecco's phosphate buffered saline (DPBS) without calcium or magnesium, fetal bovine serum, trypsin-EDTA solution, 2-thiobarbituric acid, MTT, and trichloroacetic acid were obtained from Sigma. […] The capsule's contents were extracted in ethanol [0.5 g (contents of one capsule) in 5 ml ethanol and the components at concentrations incorporated in the blend in 5 ml ethanol]. The extracts were diluted using the culture medium or DPBS.
Cells were maintained in 250 ml Corning flasks having a 0.2 μ vented cap in 10 ml of DMEM supplemented with 10% fetal bovine serum. The cultures were incubated at 37° C. in a CO2 incubator with 90% air and 10% CO2. The cells were subcultured every 5 days.
Assays were performed in 35 mm Costar tissue culture plates. The cells were plated at a density of 90,000 cells per well in the growth medium and allowed to attach and grow for 48 hr. The medium was changed after 36 hr with fresh medium containing the extracts at different concentrations. After 12 hr of incubation with the test extracts, the cells were washed with DPBS to remove the original medium. One ml of DPBS with or without the test extracts was added to each dish. The cells were incubated for 1 hr before exposure to UV irradiation. Non-irradiated cells were used as the control. […] Biophys. […] The results are the means ±SD of triplicate measurements.

[4] = DPPH radical reduction (cell-free spectrophotometric assay); type: biochemical; settings: at the dilutions tested
Description: as §1, §2

SMILES | superoxide: activity among the four components [1] | trypsin: activity of the components [2] | UV protection: activity of the components [3] | range of concentrations at which the component was active in the UV protection assay [3] [mg/mL] | DPPH: activity among the four components [4]
O=C(O)CCCCC1CCSS1 (stereo not shown) [lipoic acid, 6,8-thioctic acid] | most active | active | active | 0.001 to 1 | –
CC1=C[C@H](O)CC(C)(C)[C@H]1/C=C/C(C)=C/C=C/C(C)=C/C=C/C=C(C)/C=C/C=C(C)/C=C/C1=C(C)C[C@@H](O)CC1(C)C [lutein] | – | active | active | – | most active
C[Se]CC[C@H](N)C(=O)O [selenium, selenomethionine] | – | active | active | 1e-06 to 0.001 | –
